In the NIST ThermoML archive (doi:10.1021/je8009545):

Experiment: xn = mol fraction of the nth substance listed
Details: Gas; for mass density: Gas pipette; for viscosity: Oscillating disk viscometry

COC [dimethyl ether] + N#N
Details	mass density, 348.15 K [kg/m3]	mass density, 373.15 K [kg/m3]	viscosity, 348.15 K [mPa·s]	viscosity, 373.15 K [mPa·s]
101 kPa, x1 = 0.281	–	0.665	–	0.01773
101 kPa, x1 = 0.522	–	0.95	–	0.01534
101 kPa, x1 = 0.82	–	1.171	–	0.01282
101 kPa, x1 = 1	–	1.235	–	0.01161
301 kPa, x1 = 0.522	–	3.577	–	0.01535
305 kPa, x1 = 1	5.17	4.748	0.01081	0.0116
306 kPa, x1 = 0.661	4.345	–	0.01319	–
312 kPa, x1 = 0.82	–	4.4	–	0.01285
325 kPa, x1 = 0.281	–	3.419	–	0.01777
325 kPa, x1 = 0.491	4.155	–	0.01468	–
500 kPa, x1 = 1	–	7.787	–	0.01162
516 kPa, x1 = 0.82	–	7.217	–	0.01285
519 kPa, x1 = 0.661	7.453	–	0.01321	–
520 kPa, x1 = 0.281	–	5.508	–	0.01777
520 kPa, x1 = 0.313	6.153	–	0.01644	–
525 kPa, x1 = 0.491	6.977	–	0.01471	–
530 kPa, x1 = 0.522	–	6.584	–	0.01539
551 kPa, x1 = 1	9.705	–	0.01082	–
992 kPa, x1 = 0.661	14.43	–	0.01327	–
998 kPa, x1 = 0.313	11.96	–	0.0165	–
1006 kPa, x1 = 1	19.03	–	0.01085	–
1011 kPa, x1 = 0.281	–	10.64	–	0.01784
1021 kPa, x1 = 0.491	13.54	–	0.01476	–
1028 kPa, x1 = 1	–	16.71	–	0.01168
1029 kPa, x1 = 0.522	–	12.76	–	0.0155
1038 kPa, x1 = 0.82	–	15.16	–	0.01295
1561 kPa, x1 = 1	35.81	–	0.01094	–
1850 kPa, x1 = 1	44.66	–	0.01106	–
1909 kPa, x1 = 0.491	26.07	–	0.01499	–
1915 kPa, x1 = 0.281	–	20.8	–	0.01801
1940 kPa, x1 = 1	–	35.33	–	0.01191
1952 kPa, x1 = 0.82	–	30.93	–	0.01314
2036 kPa, x1 = 0.522	–	25.83	–	0.01568
2053 kPa, x1 = 0.661	33.49	–	0.01353	–
2095 kPa, x1 = 0.313	25.47	–	0.01672	–
